Source: patent publication US20190335746A1, “ANTIMICROBIAL GAS RELEASING AGENTS AND SYSTEMS AND METHODS FOR USING THE SAME” (priority 2016, published 2019)

Assay: Spiking the product matrices with ClO2 gas
Details: product matrices spiked with ClO2 gas
Source text: Headspace samples underwent a colorimetric analysis for ClO2 gas.

[O][Cl+][O-] [ClO2 gas, chlorine dioxide]
chlorine dioxide in the residual juice and tomato samples after spiking: no detectable chlorine dioxide
